Literature values in publication PMC7395068, “The evolution of strategies to minimise the risk of human drug-induced liver injury (DILI) in drug discovery and development” (Archives of Toxicology, 2020).
Like-named read-outs stand apart in the source and are kept apart here. Where a SMILES comes first, the peptide text is derived from it. Bridges are numbered along the chain shown (N, C = ends). [ ]: non-standard residue; d: D form. The star is where a group is joined. dPhe(4-NHCONH2) = NC(=O)Nc1ccc(C[C@@H](N)C(=O)O)cc1; Dihydroorotyl(S) = O=C1C[C@@H](C(=O)*)NC(=O)N1; dPhe(4-Cl) = N[C@H](Cc1ccc(Cl)cc1)C(=O)O; Phe(4-NH2) = Nc1ccc(C[C@H](N)C(=O)O)cc1; d2Nal = N[C@H](Cc1ccc2ccccc2c1)C(=O)O; Lys(iPr) = CC(C)NCCCC[C@H](N)C(=O)O; hArg = N=C(N)NCCCC[C@H](N)C(=O)O; d3Pal = N[C@H](Cc1cccnc1)C(=O)O; Mpa = O=C(O)CCS

Settings: cited from earlier work
[1] = binary in vivo human DILI call, ref Chen 2016
[2] = human DILI, LTKB DILIrank category, ref Chen 2016

Compound	DILI +VE (5-8), DILI -VE (-4) [1]	DILI severity category [2]	DILI +VE (5-8), DILI -VE (-4) (in vivo)	DILI severity category (in vivo)
CC(=O)N[C@H](Cc1ccc2ccccc2c1)C(=O)N[C@H](Cc1ccc(Cl)cc1)C(=O)N[C@H](Cc1cccnc1)C(=O)N[C@@H](CO)C(=O)N[C@@H](Cc1ccc(NC(=O)[C@@H]2CC(=O)NC(=O)N2)cc1)C(=O)N[C@H](Cc1ccc(NC(N)=O)cc1)C(=O)N[C@@H](CC(C)C)C(=O)N[C@@H](CCCCNC(C)C)C(=O)N1CCC[C@H]1C(=O)N[C@H](C)C(N)=O [degarelix] (Ac-[d2Nal][dPhe(4-Cl)][d3Pal]S[Phe(4-NH2)](Dihydroorotyl(S))[dPhe(4-NHCONH2)]L[Lys(iPr)]P[dA]-NH2)	-VE	Ambiguous DILI-concern		
CC(C)Nc1cccnc1N1CCN(C(=O)c2cc3cc(NS(C)(=O)=O)ccc3[nH]2)CC1 [delavirdine]	-VE	Ambiguous DILI-concern		
CN(C)CC(c1ccc(O)cc1)C1(O)CCCCC1 (centres unmarked) [desvenlafaxine]	+VE	vLess-DILI-Concern		
CN(C)CC[C@@H](c1ccc(Cl)cc1)c1ccccn1 [dexchlorpheniramine]	-VE	vNo-DILI-Concern		
Cc1c(OCC(F)(F)F)ccnc1C[S@@+]([O-])c1nc2ccccc2[nH]1 [dexlansoprazole]	+VE	vLess-DILI-Concern		
Cc1cccc([C@H](C)c2cnc[nH]2)c1C [dexmedetomidine]	-VE	Ambiguous DILI-concern		
COC(=O)[C@H](c1ccccc1)[C@H]1CCCCN1 [dexmethylphenidate]			+VE	vLess-DILI-Concern
CC(C)(CO)[C@@H](O)C(=O)NCCCO [dexpanthenol]			-VE	vNo-DILI-Concern
C[C@@H](CN1CC(=O)NC(=O)C1)N1CC(=O)NC(=O)C1 [dexrazoxane]	-VE	Ambiguous DILI-concern		
C[C@H](N)Cc1ccccc1 [dextroamphetamine]			-VE	vNo-DILI-Concern
NS(=O)(=O)c1cc(Cl)c(Cl)c(S(N)(=O)=O)c1 [dichlorphenamide]	-VE	vNo-DILI-Concern		
CCN(CC)CCOC(=O)C1(C2CCCCC2)CCCCC1 [dicyclomine]	-VE	vNo-DILI-Concern		
OCC(S)CS (centres unmarked) [dimercaprol]	-VE	vNo-DILI-Concern		
CCOC(=O)C1(c2ccccc2)CCN(CCC(C#N)(c2ccccc2)c2ccccc2)CC1 [diphenoxylate]	-VE	vNo-DILI-Concern		
CC(C)N(CCC(C(N)=O)(c1ccccc1)c1ccccn1)C(C)C (centres unmarked) [disopyramide]	+VE	vLess-DILI-Concern		
CCN1CC(CCN2CCOCC2)C(c2ccccc2)(c2ccccc2)C1=O (centres unmarked) [doxapram]	-VE	vNo-DILI-Concern		
CN(C)CCC=C1c2ccccc2COc2ccccc21 [doxepin]	+VE	vLess-DILI-Concern		
C=C1/C(=C\C=C2/CCC[C@]3(C)[C@@H]([C@H](C)/C=C/[C@H](C)C(C)C)CC[C@@H]23)C[C@@H](O)C[C@@H]1O [doxercalciferol]	-VE	Ambiguous DILI-concern		
CCCCc1oc2ccc(NS(C)(=O)=O)cc2c1C(=O)c1ccc(OCCCN(CCCC)CCCC)cc1 [dronedarone]	+VE	vMost-DILI-Concern		
CNCC[C@H](Oc1cccc2ccccc12)c1cccs1 [duloxetine]			+VE	vMost-DILI-Concern
C[C@]12C=CC(=O)N[C@@H]1CC[C@@H]1[C@@H]2CC[C@]2(C)[C@@H](C(=O)Nc3cc(C(F)(F)F)ccc3C(F)(F)F)CC[C@@H]12 [dutasteride]	-VE	vNo-DILI-Concern		
O=C(O)CN(CCN(CC(=O)O)CC(=O)O)CC(=O)O [edetic acid]			-VE	Ambiguous DILI-concern
CN1CCC[C@@H]1Cc1c[nH]c2ccc(CCS(=O)(=O)c3ccccc3)cc12 [eletriptan]	-VE	Ambiguous DILI-concern		

Compound	DILI +VE (5-8), DILI -VE (-4) [1]	DILI severity category [2]	DILI +VE (5-8), DILI -VE (-4) (in vivo)	DILI severity category (in vivo)
CC1=NN(c2ccc(C)c(C)c2)C(=O)/C1=N\Nc1cccc(-c2cccc(C(=O)O)c2)c1O [eltrombopag olamine]	+VE	vMost-DILI-Concern		
Nc1nc(=O)n([C@@H]2CS[C@H](CO)O2)cc1F [emtricitabine]	-VE	Ambiguous DILI-concern		
CN[C@@H](C)[C@H](O)c1ccccc1 [ephedrine]			-VE	vNo-DILI-Concern
CNC[C@H](O)c1ccc(O)c(O)c1 [epinephrine]	-VE	vNo-DILI-Concern		
COc1cccc2c1C(=O)c1c(O)c3c(c(O)c1C2=O)C[C@@](O)(C(=O)CO)C[C@@H]3O[C@H]1C[C@H](N)[C@@H](O)[C@H](C)O1 [epirubicin]	-VE	Ambiguous DILI-concern		
COC(=O)[C@@H]1CC2=CC(=O)CC[C@]2(C)[C@@]23O[C@@H]2C[C@@]2(C)[C@@H](CC[C@@]24CCC(=O)O4)[C@H]13 [eplerenone]	-VE	Ambiguous DILI-concern		
CCCCC[C@H](O)/C=C/[C@@H]1[C@H]2C/C(=C/CCCC(=O)O)O[C@H]2C[C@H]1O [epoprostenol]	-VE	Ambiguous DILI-concern		
CCCCc1ncc(/C=C(\Cc2cccs2)C(=O)O)n1Cc1ccc(C(=O)O)cc1 [eprosartan]	-VE	Ambiguous DILI-concern		
N=C(N)NCCCC[C@@H]1NC(=O)CCSSC[C@@H](C(N)=O)NC(=O)[C@@H]2CCCN2C(=O)[C@H](Cc2c[nH]c3ccccc23)NC(=O)[C@H](CC(=O)O)NC(=O)CNC1=O [eptifibatide] ([Mpa][hArg]GDWPC-NH2; disulfide 1-7)			-VE	vNo-DILI-Concern
C[C@@H](O)[C@H]1C(=O)N2C(C(=O)O)=C(S[C@@H]3CN[C@H](C(=O)Nc4cccc(C(=O)O)c4)C3)[C@H](C)[C@H]12 [ertapenem]	-VE	Ambiguous DILI-concern		
CN(C)CCC[C@@]1(c2ccc(F)cc2)OCc2cc(C#N)ccc21 [escitalopram]			+VE	vLess-DILI-Concern
COc1ccc2[n-]c([S@@+]([O-])Cc3ncc(C)c(OC)c3C)nc2c1.[Na+] [esomeprazole Sodium]			+VE	vLess-DILI-Concern
Clc1ccc2c(c1)C(c1ccccc1)=NCc1nncn1-2 [estazolam]	-VE	vNo-DILI-Concern		
C[C@]12CC[C@@H]3c4ccc(OC(=O)N(CCCl)CCCl)cc4CC[C@H]3[C@@H]1CC[C@@H]2O [estramustine]	+VE	vMost-DILI-Concern		
CN1CCN(C(=O)O[C@H]2c3nccnc3C(=O)N2c2ccc(Cl)cn2)CC1 [eszopiclone]	-VE	Ambiguous DILI-concern		
CCCCCCCC/C=C\CCCCCCCC(=O)O.NCCO [ethanolamine oleate]	-VE	vNo-DILI-Concern		
CCc1cc(C(N)=S)ccn1 [ethionamide]	+VE	vLess-DILI-Concern		
CCC1(C)CC(=O)NC1=O (centres unmarked) [ethosuximide]	-VE	Ambiguous DILI-concern		
CCOC(=O)c1cncn1[C@H](C)c1ccccc1 [etomidate]			-VE	vNo-DILI-Concern
C#C[C@]1(O)CC[C@H]2[C@@H]3CCC4=CC(=O)CC[C@@H]4[C@H]3C(=C)C[C@@]21CC [etonogestrel]	-VE	Ambiguous DILI-concern		
Cc1cc(C#N)cc(C)c1Oc1nc(Nc2ccc(C#N)cc2)nc(N)c1Br [etravirine]	+VE	vMost-DILI-Concern		
CO[C@H]1C[C@@H]2CC[C@@H](C)[C@@](O)(O2)C(=O)C(=O)N2CCCC[C@H]2C(=O)O[C@H]([C@H](C)C[C@@H]2CC[C@@H](OCCO)[C@H](OC)C2)CC(=O)[C@H](C)/C=C(\C)[C@@H](O)[C@@H](OC)C(=O)[C@H](C)C[C@H](C)/C=C/C=C/C=C/1C [everolimus]	-VE	Ambiguous DILI-concern		
C/C(=N\O)C(C)NCC(C)(C)CNC(C)/C(C)=N/O (centres unmarked) [exametazime]	-VE	vNo-DILI-Concern		
